Calls of active or inactive are those of the source.
What was measured:
[1] = THP-1 cell cytotoxicity, dose response, cytotoxicity control for non-replicating M. tuberculosis project (AID 489025); assay type: functional
cells [2] = assay type: functional
Fatty acid synthase [3] = target: T1, Fatty acid synthase (Homo sapiens, UniProt P49327); test: FAS thioesterase domain inhibitors, dose response, biochemical, kinetic fluorescence intensity (AID 624326); assay type: functional;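 further: rate of fluorescence rise from hydrolysis of a fluorogenic O-methyl fluorescein ester substrate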
T1 sequence (P49327 whole entry, the tested form may be a part): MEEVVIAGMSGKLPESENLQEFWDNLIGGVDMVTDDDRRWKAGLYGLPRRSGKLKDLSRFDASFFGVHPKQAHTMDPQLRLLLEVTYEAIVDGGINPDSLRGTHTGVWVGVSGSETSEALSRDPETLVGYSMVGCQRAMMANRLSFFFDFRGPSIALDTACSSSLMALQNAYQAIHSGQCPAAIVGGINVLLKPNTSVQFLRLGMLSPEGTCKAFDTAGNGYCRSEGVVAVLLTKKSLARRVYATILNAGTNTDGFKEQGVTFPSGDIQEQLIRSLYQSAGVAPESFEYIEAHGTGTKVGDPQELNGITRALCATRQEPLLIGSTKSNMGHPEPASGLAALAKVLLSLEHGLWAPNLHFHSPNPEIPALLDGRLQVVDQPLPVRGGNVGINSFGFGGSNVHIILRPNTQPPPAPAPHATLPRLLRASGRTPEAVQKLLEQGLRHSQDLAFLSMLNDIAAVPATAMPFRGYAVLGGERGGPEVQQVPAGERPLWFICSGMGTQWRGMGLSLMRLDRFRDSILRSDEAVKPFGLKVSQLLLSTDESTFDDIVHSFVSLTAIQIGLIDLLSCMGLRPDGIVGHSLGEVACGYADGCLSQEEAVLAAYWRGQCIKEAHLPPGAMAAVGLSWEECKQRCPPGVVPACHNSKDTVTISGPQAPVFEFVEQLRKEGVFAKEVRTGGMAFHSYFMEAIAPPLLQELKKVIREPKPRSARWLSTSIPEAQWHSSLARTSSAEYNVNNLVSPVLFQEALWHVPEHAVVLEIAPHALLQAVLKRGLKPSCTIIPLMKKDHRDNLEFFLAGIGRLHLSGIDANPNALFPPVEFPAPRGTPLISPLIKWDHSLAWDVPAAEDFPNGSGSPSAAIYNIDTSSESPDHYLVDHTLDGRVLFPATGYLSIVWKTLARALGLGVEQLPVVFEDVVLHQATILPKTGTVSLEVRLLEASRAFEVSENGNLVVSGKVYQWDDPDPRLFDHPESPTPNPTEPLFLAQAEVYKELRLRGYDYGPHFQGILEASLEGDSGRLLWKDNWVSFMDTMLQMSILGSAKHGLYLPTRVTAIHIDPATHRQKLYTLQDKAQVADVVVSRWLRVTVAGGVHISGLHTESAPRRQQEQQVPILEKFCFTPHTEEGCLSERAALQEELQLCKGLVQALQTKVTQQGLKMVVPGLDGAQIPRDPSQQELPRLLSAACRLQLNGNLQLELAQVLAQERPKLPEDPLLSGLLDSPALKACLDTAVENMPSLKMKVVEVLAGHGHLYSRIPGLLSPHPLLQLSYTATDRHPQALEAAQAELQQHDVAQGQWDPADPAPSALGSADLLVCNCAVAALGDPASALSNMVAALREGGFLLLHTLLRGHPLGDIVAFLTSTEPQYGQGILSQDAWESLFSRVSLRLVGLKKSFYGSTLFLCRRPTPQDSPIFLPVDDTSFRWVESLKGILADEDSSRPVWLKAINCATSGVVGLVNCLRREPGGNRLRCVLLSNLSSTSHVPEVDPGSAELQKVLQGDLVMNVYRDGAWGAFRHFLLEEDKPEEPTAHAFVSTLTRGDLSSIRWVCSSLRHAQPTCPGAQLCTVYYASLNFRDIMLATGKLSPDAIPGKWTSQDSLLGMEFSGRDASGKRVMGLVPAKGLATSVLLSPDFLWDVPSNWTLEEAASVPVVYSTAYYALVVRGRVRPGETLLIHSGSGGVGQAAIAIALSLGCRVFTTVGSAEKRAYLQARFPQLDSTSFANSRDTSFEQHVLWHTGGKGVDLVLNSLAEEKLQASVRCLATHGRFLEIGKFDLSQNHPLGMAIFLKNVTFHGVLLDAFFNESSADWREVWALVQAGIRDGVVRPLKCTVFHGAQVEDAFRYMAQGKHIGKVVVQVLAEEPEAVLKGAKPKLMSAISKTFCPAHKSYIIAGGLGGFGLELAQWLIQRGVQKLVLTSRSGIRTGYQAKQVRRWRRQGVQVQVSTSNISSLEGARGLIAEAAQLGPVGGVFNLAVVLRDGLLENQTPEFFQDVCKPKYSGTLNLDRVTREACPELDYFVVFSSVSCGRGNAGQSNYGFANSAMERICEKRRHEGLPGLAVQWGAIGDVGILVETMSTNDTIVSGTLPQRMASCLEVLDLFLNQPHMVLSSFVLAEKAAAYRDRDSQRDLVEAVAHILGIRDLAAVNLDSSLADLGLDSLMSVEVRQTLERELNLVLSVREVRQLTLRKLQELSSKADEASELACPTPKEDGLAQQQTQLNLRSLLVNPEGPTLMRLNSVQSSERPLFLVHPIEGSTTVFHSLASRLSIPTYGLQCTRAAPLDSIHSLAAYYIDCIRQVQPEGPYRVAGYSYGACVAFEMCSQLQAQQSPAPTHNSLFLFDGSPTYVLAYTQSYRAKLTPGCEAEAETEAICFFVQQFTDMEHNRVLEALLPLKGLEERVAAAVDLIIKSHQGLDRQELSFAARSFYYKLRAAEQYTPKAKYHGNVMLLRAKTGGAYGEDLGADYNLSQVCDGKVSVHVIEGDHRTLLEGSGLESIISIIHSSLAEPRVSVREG

Fatty acid synthase [4] = target: T1, Fatty acid synthase; test: FAS thioesterase domain inhibitors, dose response, biochemical, endpoint fluorescence intensity, uHTS hits (AID 624327); assay type: functional;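 further: fluorescence from hydrolysis of an O-methyl fluorescein acyl ester substrate by the enzyme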
[5] = target: FAD-linked sulfhydryl oxidase ALR (Homo sapiens, UniProt P55789); test: inhibitors of human ALR sulfhydryl oxidase, dose response, biochemical, H2O2 detection, luminescence, cherry-pick (AID 493248)
Chain of FAD-linked sulfhydryl oxidase ALR (P55789 whole entry): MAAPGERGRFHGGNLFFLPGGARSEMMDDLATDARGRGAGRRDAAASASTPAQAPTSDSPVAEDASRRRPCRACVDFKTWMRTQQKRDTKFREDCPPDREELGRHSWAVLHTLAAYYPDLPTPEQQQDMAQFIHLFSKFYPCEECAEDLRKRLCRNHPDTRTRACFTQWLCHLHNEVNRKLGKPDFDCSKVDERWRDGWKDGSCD

[6] = target: Voltage-dependent T-type calcium channel subunit alpha-1H (Homo sapiens, UniProt O95180); assay type: functional;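 further: channel activity triggered by adding a high calcium stimulation buffer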
Chain of Voltage-dependent T-type calcium channel subunit alpha-1H (O95180 whole entry): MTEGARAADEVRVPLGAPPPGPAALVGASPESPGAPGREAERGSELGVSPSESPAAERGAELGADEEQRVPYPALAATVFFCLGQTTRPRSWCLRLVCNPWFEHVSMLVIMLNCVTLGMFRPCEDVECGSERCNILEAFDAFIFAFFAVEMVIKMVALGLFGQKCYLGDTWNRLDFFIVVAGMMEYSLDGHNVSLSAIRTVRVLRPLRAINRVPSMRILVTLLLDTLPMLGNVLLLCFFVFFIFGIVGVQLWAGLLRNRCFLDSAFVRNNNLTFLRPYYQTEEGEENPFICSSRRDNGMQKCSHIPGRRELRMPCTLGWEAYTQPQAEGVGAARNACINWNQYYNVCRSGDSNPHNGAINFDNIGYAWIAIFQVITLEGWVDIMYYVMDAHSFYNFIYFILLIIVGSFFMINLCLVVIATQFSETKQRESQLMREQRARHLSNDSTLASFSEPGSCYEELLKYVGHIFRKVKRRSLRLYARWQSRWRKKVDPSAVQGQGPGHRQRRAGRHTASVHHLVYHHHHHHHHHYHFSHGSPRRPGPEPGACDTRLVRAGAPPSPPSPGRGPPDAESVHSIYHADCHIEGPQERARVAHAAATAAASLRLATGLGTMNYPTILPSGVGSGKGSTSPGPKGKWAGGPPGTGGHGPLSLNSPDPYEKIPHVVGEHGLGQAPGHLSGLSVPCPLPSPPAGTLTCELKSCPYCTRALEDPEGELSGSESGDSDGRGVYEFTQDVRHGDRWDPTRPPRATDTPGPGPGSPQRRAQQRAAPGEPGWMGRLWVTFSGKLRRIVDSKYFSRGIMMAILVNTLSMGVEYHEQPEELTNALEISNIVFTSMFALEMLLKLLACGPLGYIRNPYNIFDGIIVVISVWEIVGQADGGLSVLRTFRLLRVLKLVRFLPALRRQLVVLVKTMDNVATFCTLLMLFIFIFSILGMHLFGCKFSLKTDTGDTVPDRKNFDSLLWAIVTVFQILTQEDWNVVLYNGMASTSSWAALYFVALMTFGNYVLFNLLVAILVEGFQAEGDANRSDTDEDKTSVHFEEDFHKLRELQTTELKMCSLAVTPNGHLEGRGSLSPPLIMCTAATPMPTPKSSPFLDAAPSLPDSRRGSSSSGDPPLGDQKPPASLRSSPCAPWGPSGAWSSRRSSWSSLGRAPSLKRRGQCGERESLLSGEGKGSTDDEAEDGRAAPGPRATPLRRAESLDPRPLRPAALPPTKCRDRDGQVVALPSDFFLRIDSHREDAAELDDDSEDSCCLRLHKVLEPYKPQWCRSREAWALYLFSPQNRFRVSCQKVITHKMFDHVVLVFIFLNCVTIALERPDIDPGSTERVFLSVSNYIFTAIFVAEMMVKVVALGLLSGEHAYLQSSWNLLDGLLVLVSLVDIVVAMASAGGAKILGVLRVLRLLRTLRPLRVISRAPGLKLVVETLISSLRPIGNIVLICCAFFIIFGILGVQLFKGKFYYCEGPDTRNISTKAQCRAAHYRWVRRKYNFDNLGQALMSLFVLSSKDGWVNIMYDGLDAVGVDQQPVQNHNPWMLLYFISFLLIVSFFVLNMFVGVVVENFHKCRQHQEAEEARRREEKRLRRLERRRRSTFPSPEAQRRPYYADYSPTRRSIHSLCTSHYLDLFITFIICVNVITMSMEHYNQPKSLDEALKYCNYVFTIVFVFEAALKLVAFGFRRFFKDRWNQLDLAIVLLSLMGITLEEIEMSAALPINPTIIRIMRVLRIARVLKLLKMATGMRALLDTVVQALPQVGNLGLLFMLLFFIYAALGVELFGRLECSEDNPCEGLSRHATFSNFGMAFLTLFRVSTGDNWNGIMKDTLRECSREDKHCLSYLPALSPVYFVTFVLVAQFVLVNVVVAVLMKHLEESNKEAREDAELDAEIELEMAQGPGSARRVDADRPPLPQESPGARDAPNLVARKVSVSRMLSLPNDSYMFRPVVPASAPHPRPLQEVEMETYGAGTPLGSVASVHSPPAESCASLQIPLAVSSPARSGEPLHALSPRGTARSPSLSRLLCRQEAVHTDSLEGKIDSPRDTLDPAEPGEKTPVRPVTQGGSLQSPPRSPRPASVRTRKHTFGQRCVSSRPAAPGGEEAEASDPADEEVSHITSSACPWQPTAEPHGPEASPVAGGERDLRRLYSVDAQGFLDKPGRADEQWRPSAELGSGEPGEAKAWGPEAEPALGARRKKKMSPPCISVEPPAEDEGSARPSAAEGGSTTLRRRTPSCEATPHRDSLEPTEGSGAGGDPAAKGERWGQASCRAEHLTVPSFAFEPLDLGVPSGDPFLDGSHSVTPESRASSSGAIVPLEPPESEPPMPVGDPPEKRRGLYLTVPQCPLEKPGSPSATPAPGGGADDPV

INS1 = test: beta cell apoptosis inhibitors, cytokine rescue, dose response, luminescence, retest (AID 449756); assay type: functional, cell-based; conditions: Rattus norvegicus;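 further: cell death triggered by IL-1 beta plus TNF-alpha plus IFN-gamma mixture; protective hits raise ATP signal compared with cytokine alone wells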
[7] = control 3'UTR Renilla luciferase suppression, dose response, counter-screen for Shn3 inhibitor project, cell-based, Clone20-Shn3RL, cherry-picked (AID 624133); assay type: functional
[8] = Shn3 3'UTR reporter inhibitors, dose response, cell-based, Clone20 osteoblasts, firefly luciferase, cherry-picked (AID 624132); assay type: functional;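 further: firefly luciferase luminescence from reporter carrying the Shn3 3'UTR in osteoblasts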
[9] = HepG2 cell cytotoxicity, dose response, cytotoxicity control for Shn3 inhibitor project, CellTiter-Glo, cherry-picked (AID 624134); assay type: functional, cell-based
[10] = NIH-3T3 fibroblast cytotoxicity, dose response, cytotoxicity control, cell-based, fluorescence, Alamar Blue, secondary assay (AID 2327); assay type: functional;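 further: NIH-3T3 mouse fibroblasts cultured with fluconazole at 8 µg/mL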
cells [11] = assay type: functional, cell-based
cells [12] = assay type: functional, cell-based; remark: listed apart in the source
Nonstructural protein 1 = Nonstructural protein 1 (Influenza A virus, UniProt Q194T2); assay type: functional, Influenza A virus (A/California/07/2009(H1N1))
[13] = target: T2, Polyadenylate-binding protein 1 (Homo sapiens, UniProt P11940); test: PABP1 MLLE–PAM2 interaction inhibitors, dose response, miRNA deadenylation inhibitor project, biochemical, fluorescence polarization, Cy5-PAM2 peptide, secondary (AID 602260); assay type: functional; conditions: read-out: IC50_Mean
[14] = target: T2, Polyadenylate-binding protein 1; test: PABP1 MLLE–PAM2 binding inhibitor potency, dose response, biochemical, fluorescence polarization, FITC-PAM2 peptide (AID 602259); assay type: functional; conditions: read-out: IC50_Mean
Estrogen receptor beta = Estrogen receptor beta (Homo sapiens, UniProt Q92731);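 further: recombinant ER-beta bound to coactivator SRC1 peptide in presence of estradiol agonist; inhibitors block coactivator peptide binding and lower the FRET signal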
[15] = target: Glyceraldehyde-3-phosphate dehydrogenase (Homo sapiens, UniProt P04406)
Protein skinhead-1 = target: T3, Protein skinhead-1 (Caenorhabditis elegans, UniProt P34707); assay type: functional
T3 sequence (P34707 whole entry): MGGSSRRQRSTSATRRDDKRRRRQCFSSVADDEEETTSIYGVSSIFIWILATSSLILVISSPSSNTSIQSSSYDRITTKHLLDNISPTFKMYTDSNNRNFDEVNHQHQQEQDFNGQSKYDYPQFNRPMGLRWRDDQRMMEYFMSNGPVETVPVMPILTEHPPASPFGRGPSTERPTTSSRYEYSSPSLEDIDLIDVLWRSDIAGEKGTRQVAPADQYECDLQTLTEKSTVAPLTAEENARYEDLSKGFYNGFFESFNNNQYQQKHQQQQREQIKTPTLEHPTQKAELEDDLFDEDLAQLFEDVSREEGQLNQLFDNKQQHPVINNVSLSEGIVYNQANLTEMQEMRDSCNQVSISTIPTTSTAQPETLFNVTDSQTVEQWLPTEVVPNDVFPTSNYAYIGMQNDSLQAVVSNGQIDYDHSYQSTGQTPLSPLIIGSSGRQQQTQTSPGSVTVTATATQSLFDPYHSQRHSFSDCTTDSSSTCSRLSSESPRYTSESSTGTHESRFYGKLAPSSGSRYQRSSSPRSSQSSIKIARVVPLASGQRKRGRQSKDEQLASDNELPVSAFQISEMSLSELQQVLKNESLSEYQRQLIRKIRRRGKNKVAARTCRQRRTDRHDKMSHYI

Cytochrome P450 3A4 = Cytochrome P450 3A4 (Homo sapiens, UniProt P08684);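 further: CYP3A4 tested as one member of a cytochrome P450 panel screen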
[16] = Luminescence Cell-Based Dose Retest to Confirm Inhibitors of Cancer Stem Cells. [Related pubchem assays (depositor defined):AID2717, AID2721]; assay type: functional; conditions: Homo sapiens
Paired box protein Pax-8 = Paired box protein Pax-8 (Homo sapiens, UniProt Q06710); test: inhibitors of PAX8-driven TPO luciferase reporter, dose response, RMG-I cells, cherry-pick (AID 687027); assay type: functional, cell-based;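 further: luciferase reporter driven by Pax8 target thyroperoxidase promoter measured by SteadyGlo luminescence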
[17] = inhibitors of intracellular T. cruzi replication, confirmation, NIH3T3 host cells, beta-gal luminescence (AID 2044); assay type: functional, cell-based;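 further: intracellular parasites grown in NIH/3T3 mouse fibroblasts as host cells; luminescent beta-galactosidase reporter signal from transgenic T. cruzi replicating inside host cells; inhibitors lower the luminescence signal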
[18] = cytotoxicity toward NIH3T3 fibroblasts, dose response, counter-screen, cell-based, ATP luminescence, mouse fibroblasts (AID 2010); assay type: functional;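 further: cells exposed to compound for about 90 hours before reading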

Cc1cccc2cc(C#N)c(NCCCn3ccnc3)nc12
CC50 [1]: > 40 µM (active)
IC50 (cells [2]): 43.2 µM (active)

O=C(COC(=O)c1cc([N+](=O)[O-])ccc1N1CCOCC1)Nc1c(Cl)cccc1Cl
IC50 (Fatty acid synthase [3]): 6.21 µM (active)
IC50 (Fatty acid synthase [4]): 7.85 µM (active)

CCN(CC)c1ccc(NC(=O)c2ccc(Br)o2)c(C)c1
AC50 [5]: 1.61 µM (active)

CC1CCN(C(=O)C2CCN(CCCc3ccccc3)CC2)CC1
EC50 [6]: 7.69 µM (active)

Cc1cc(N2CCCC2=O)cc(C)c1S(=O)(=O)NCCOc1ccc(C(C)(C)C)cc1
AC50 (INS1): 2.58 µM (active)
AC50 [7]: 2.36 µM (active)
AC50 [8]: 1.15 µM (active)
AC50 [9]: 51.4 µM (active)

O=C(Nc1nc2ccccc2[nH]1)c1ccc(F)cc1
CC50 [1]: > 40 µM (active)
IC50 (cells [2]): 4.33 µM (active)

Cc1ccc(C(=O)NCc2ccco2)cc1S(=O)(=O)Nc1cccc(Cl)c1
EC50 [10]: > 150 µM (inactive)
EC50 [6]: 5.11 µM (active)

Nc1nc(-c2ccc3ccccc3c2)cs1
AC50 [5]: 0.188 µM (active)

CCOC(=O)N1CCN(C(=O)c2ccc(Cn3c(=S)[nH]c4cc(OCC)c(OCC)cc4c3=O)cc2)CC1
EC50 (cells [11]): > 350 µM (not active)
EC50 (cells [12]): > 350 µM (not active)

O=C1[C@@H]2Cc3c([nH]c4ccccc34)C(c3ccccc3)N2C(=O)CN1C1CCN(Cc2ccccc2)CC1 (some centres not stated)
IC50 (Nonstructural protein 1): > 100 µM (active)

O=C1NC(c2ccccc2)(C(F)(F)F)SC2=CCCCCN12 (configuration not stated)
IC50 [13]: > 66 µM (inactive)
IC50 [14]: > 66 µM (inactive)

O=C(CN1C(=O)COc2ccc(Cl)cc21)Nc1ccc2c(c1)OCCO2
EC50 (cells [11]): > 350 µM (not active)
EC50 (cells [12]): > 350 µM (not active)

Nc1[nH]c(N=NC(=O)c2ccccc2O)c2ccccc12
IC50 (Nonstructural protein 1): 24.5 µM (active)

CCCCC(CC)C(=O)NCc1ccccc1OC (configuration not stated)
IC50 (Estrogen receptor beta): > 50 µM (not active)

CC(C)Oc1ccc(C2CC(=O)N(Nc3ccc([N+](=O)[O-])cc3[N+](=O)[O-])C2=O)cc1 (configuration not stated)
IC50 (Fatty acid synthase [3]): 0.846 µM (active)
IC50 (Fatty acid synthase [4]): 0.577 µM (active)

Oc1ccc(-c2nnc(S)n2-c2ccc(F)c(Cl)c2)nn1
AC50 [5]: 7.36 µM (active)

O=C1C2CCCCC2C(=O)N1c1nc(Cc2ccccc2)n[nH]1 (configuration not stated)
IC50 [15]: > 100 µM (not active)

CCOc1ccc(NC(=O)CN(c2cccc(C(F)(F)F)c2)S(C)(=O)=O)cc1
EC50 [6]: 9.24 µM (active)

O=C(NC(=S)NNS(=O)(=O)c1ccc(Cl)cc1)c1cccnc1
IC50 [13]: > 66 µM (inactive)
IC50 [14]: > 66 µM (inactive)

CCC(SC1=NCCS1)C(=O)Nc1ccc(S(N)(=O)=O)cc1 (configuration not stated)
IC50 [13]: > 66 µM (inactive)
IC50 [14]: > 66 µM (inactive)

COc1ccc(NC(=O)Cn2nnc(-c3ccccc3NS(=O)(=O)c3ccccc3)n2)cc1
AC50 [7]: 16.1 µM (active)
AC50 [8]: 0.485 µM (active)
AC50 [9]: 9.81 µM (active)

COc1ccccc1OCC(O)Cn1c(=N)n(Cc2ccccc2)c2ccccc21 (configuration not stated)
AC50 [7]: 10.7 µM (active)
AC50 [8]: 4.01 µM (active)
AC50 [9]: 22.1 µM (active)

O=C(CCc1ccccc1F)N1CCN(c2ccccc2)CC1
AC50 [5]: > 100 µM (inactive)

CC(C)c1onc(C(=O)Nc2sc3c(c2C#N)CCC3)c1[N+](=O)[O-]
EC50 (cells [11]): > 350 µM (not active)
EC50 (cells [12]): > 350 µM (not active)

O=C(Nc1ccc2c(c1)OCO2)N1CCN(c2ncc(C(F)(F)F)cc2Cl)CC1
EC50 [6]: 1.99 µM (active)

CCCCCCCN1C(Nc2ccccc2)=NC[C@@H]1Cc1ccccc1
AC50 [7]: 6.34 µM (active)
AC50 [8]: 4.82 µM (active)
AC50 [9]: 23 µM (active)

CN(CC(=O)N1CCN(c2ccccc2)CC1)S(=O)(=O)c1c[nH]cn1
AC50 [5]: 4.58 µM (active)

Cc1cc(C)cc(NC(=O)CSc2nnc(Cc3cccn3C)n2-c2ccc(F)cc2)c1
EC50 [6]: 2.01 µM (active)

O=C(CCNC(=O)c1ccc([N+](=O)[O-])cc1)NCCc1ccccc1
IC50 (Fatty acid synthase [3]): 11.2 µM (active)
IC50 (Fatty acid synthase [4]): 10.3 µM (active)

Clc1ccc(OCCCCSc2ncccn2)cc1
IC50 (Protein skinhead-1): 21.7 µM (active)
IC50 [13]: > 66 µM (inactive)
IC50 [14]: > 66 µM (inactive)

CC[n+]1c(/C=C(\C)Nc2ccccc2)sc2ccccc21
CC50 [1]: 30.1 µM (active)

CC(=O)Nc1ccc(SC[C@H](Cc2ccccc2)N2CC[C@@H](C(C)(C)C)CCC2=O)cc1
IC50 [13]: > 66 µM (inactive)
IC50 [14]: > 66 µM (inactive)

O=C(NNS(=O)(=O)c1ccc(C(=O)NC2CCCC2)cc1)c1ccncc1
AC50 [5]: 1.67 µM (active)

O=C(c1ccccc1)N1CC(COc2ccccc2)OC(c2ccco2)O1 (configuration not stated)
EC50 [6]: 12.4 µM (active)

Cc1ccc(-c2cc(C(F)(F)F)n3nc(C(=O)Nc4c(C)n(C)n(-c5ccccc5)c4=O)cc3n2)cc1
EC50 (cells [11]): > 350 µM (not active)
EC50 (cells [12]): > 350 µM (not active)

Cc1ccc([N+](=O)[O-])cc1NC(=O)CCSc1ccc(Cl)cc1
IC50 (Fatty acid synthase [3]): 7.75 µM (active)
IC50 (Fatty acid synthase [4]): 6.23 µM (active)

CCOC(=O)N1CCc2[nH]c3ccc(C)cc3c2C1
IC50 [13]: > 66 µM (inactive)
IC50 [14]: 55.2 µM (inactive)

CCOC(=O)CSC1=C(C#N)C(c2sccc2C)CC(=O)N1 (configuration not stated)
AC50 (Cytochrome P450 3A4): 15.8 µM (inconclusive)
AC50 [16]: 0.722 µM (active)

N#CC1=C(N)Oc2cc(N)ccc2C1C1CC=CCC1 (configuration not stated)
AC50 [5]: 5.72 µM (active)

CC(=O)OCc1c(C(F)(F)F)nn(C)c1Oc1cccc(C(F)(F)F)c1
EC50 [6]: 8.45 µM (active)

CCc1cccc(NC(=O)COC(=O)c2cc([N+](=O)[O-])ccc2N2CCOCC2)c1
IC50 (Fatty acid synthase [3]): 0.393 µM (active)
IC50 (Fatty acid synthase [4]): 0.29 µM (active)

Cc1ccc(-c2nnc(COC(=O)c3cc(O)nc4ccccc34)o2)cc1
IC50 (Fatty acid synthase [3]): 9.54 µM (active)
IC50 (Fatty acid synthase [4]): 10.4 µM (active)

O=C(COC(=O)c1cc([N+](=O)[O-])ccc1N1CCOCC1)NCc1ccccc1
IC50 (Fatty acid synthase [3]): 0.683 µM (active)
IC50 (Fatty acid synthase [4]): 0.841 µM (active)

C[C@H](CO)N1C[C@H](C)[C@@H](CN(C)S(=O)(=O)c2ccc(Cl)cc2)OCCCC[C@H](C)Oc2ccc(NS(=O)(=O)c3ccc(Cl)cc3)cc2C1=O
AC50 (Paired box protein Pax-8): 4.34 µM (active)

CC(/C=C/c1ccccc1F)=N\NC(=O)c1ccccc1
CC50 [1]: > 40 µM (active)
IC50 (cells [2]): 21.8 µM (active)

O=c1c2ccccc2nc(COc2ccccc2)n1/N=C/c1ccc(O)cc1O
AC50 (INS1): 4.63 µM (active)
EC50 (cells [11]): 31.9 µM (active)
EC50 [17]: 2.48 µM (active)
EC50 (cells [12]): 10.6 µM (active)
EC50 [18]: 8.68 µM (active)
